Source: paper PMC6458983 (Cancer Chemotherapy and Pharmacology, 2019)
Marks after values point to notes of the source that are not given here.

Test system: Japanese patients with NSCLC
Experiment: Multivariate logistic regression of ILD with gefitinib exposure and other risk factors
Assay type: in vivo
Settings: for OR estimate (95% CI) for acute ILD: Age (≥55 vs <55 years): gefitinib-treated patients
Description: Patients with and without ILD, in whom pharmacokinetic measurements were available, were included in this analysis. […] A multivariate logistic regression model was used in this analysis; the analysis was performed using SAS version 9.3. […] In addition, the interaction of smoking history and normal lung coverage, and the interaction of the severity of pre-existing ILD and normal lung coverage were also studied. In addition, pharmacokinetic exposure parameters were divided into four quartiles (see “Results”) and investigated as risk factors. For association with ILD risk, the mid-1, mid-2, and high-exposure groups were compared with the low-exposure group.

[1] = Analysis 1 (PK parameter AUC0–24, single dose)
[2] = Analysis 1, gefitinib exposure after a single dose
[3] = Analysis 2 (PK parameter AUC0–24,ss)
[4] = Analysis 2, gefitinib exposure at steady state
[5] = Analysis 3 (PK parameter Cmax, single dose)
[6] = Analysis 3, gefitinib exposure after a single dose
[7] = Analysis 4 (PK parameter Cmax,ss)
[8] = Analysis 4, gefitinib exposure at steady state

For COc1cc2ncnc(Nc3ccc(F)c(Cl)c3)c2cc1OCCCN1CCOCC1 [gefitinib], the “OR estimate (95% CI) for acute ILD: Duration of NSCLC ≥1 vs <0.5 years” value (shortened to “OR estimate (95% CI) … vs <0.5 years”) [1] was 0.37 (0.14–0.95), the “OR estimate (95% CI) for acute ILD: Interaction of pre-existing IP and normal lung coverage” value [1] was 0.37 (0.02–6.82) and the “OR estimate (95% CI) for acute ILD: Interaction of smoking history and normal lung coverage” value [1] was 0.6 (0.09–4.12). The “OR estimate (95% CI) for acute ILD: Normal lung coverage (10%–50% vs 60%–100%)” value (shortened to “OR estimate (95% CI) … (10%–50% vs 60%–100%)”) [1] was 3.39 (0.63–18.31), the “OR estimate (95% CI) for acute ILD: Pre-existing IP (yes vs no)” value (shortened to “OR estimate (95% CI) … (yes vs no)”) [1] was 4.01 (0.37–43.22) and the “OR estimate (95% CI) for acute ILD: WHO performance status 1 vs 0” value [1] was 0.59 (0.2–1.68). For the same molecule, the “OR estimate (95% CI) for acute ILD: WHO performance status 2–3 vs 0” value [1] was 1.75 (0.48–6.33), the “OR estimate (95% CI) for acute ILD: Age (≥55 vs <55 years)” value (“OR estimate (95% CI) for acute ILD: Age” below) [1] was 1.86 (0.5–6.88) and the “OR estimate (95% CI) for acute ILD: AUC0–24 Quartile 2 vs Quartile 1” value [2] was 0.68 (0.2–2.32). For the same molecule, the “OR estimate (95% CI) for acute ILD: AUC0–24 Quartile 3 vs Quartile 1” value [2] was 0.62 (0.18–2.12), the “OR estimate (95% CI) for acute ILD: AUC0–24 Quartile 4 vs Quartile 1” value [2] was 3.35 (1.14–9.88) and the “OR estimate (95% CI) … vs <0.5 years” value [3] was 0.57 (0.19–1.69). For the same molecule, the “OR estimate (95% CI) for acute ILD: Interaction of pre-existing IP and normal lung coverage” value [3] was 0.25 (0.01–6.8), the “OR estimate (95% CI) for acute ILD: Interaction of smoking history and normal lung coverage” value [3] was 0.14 (0.01–1.52) and the “OR estimate (95% CI) … (yes vs no)” value [3] was 4.49 (0.33–60.44). For the same molecule, the “OR estimate (95% CI) for acute ILD: WHO performance status 1 vs 0” value [3] was 0.55 (0.19–1.62), the “OR estimate (95% CI) for acute ILD: WHO performance status 2–3 vs 0” value [3] was 1.37 (0.35–5.39) and the “OR estimate (95% CI) for acute ILD: Age” value [3] was 1.54 (0.36–6.6). For the same molecule, the “OR estimate (95% CI) … (10%–50% vs 60%–100%)” value (Analysis 2 (PK parameter AUC0–24,ss), p<0.05) was 9.47 (1.14–78.84)*, the “OR estimate (95% CI) for acute ILD: AUC0–24,ss Quartile 2 vs Quartile 1” value [4] was 1.2 (0.27–5.32) and the “OR estimate (95% CI) for acute ILD: AUC0–24,ss Quartile 3 vs Quartile 1” value [4] was 1.71 (0.42–6.94). For the same molecule, the “OR estimate (95% CI) for acute ILD: AUC0–24,ss Quartile 4 vs Quartile 1” value [4] was 2.09 (0.5–8.74), the “OR estimate (95% CI) … vs <0.5 years” value [5] was 0.32 (0.12–0.83) and the “OR estimate (95% CI) for acute ILD: Interaction of pre-existing IP and normal lung coverage” value [5] was 0.51 (0.03–9.56). For the same molecule, the “OR estimate (95% CI) for acute ILD: Interaction of smoking history and normal lung coverage” value [5] was 0.56 (0.08–3.96), the “OR estimate (95% CI) … (10%–50% vs 60%–100%)” value [5] was 3.56 (0.64–19.85) and the “OR estimate (95% CI) … (yes vs no)” value [5] was 3.56 (0.33–38.74). For the same molecule, the “OR estimate (95% CI) for acute ILD: WHO performance status 1 vs 0” value [5] was 0.62 (0.21–1.8), the “OR estimate (95% CI) for acute ILD: WHO performance status 2–3 vs 0” value [5] was 1.89 (0.52–6.85) and the “OR estimate (95% CI) for acute ILD: Age” value [5] was 2.13 (0.56–8.04). The “OR estimate (95% CI) for acute ILD: Cmax Quartile 2 vs Quartile 1” value [6] was 0.51 (0.14–1.8), the “OR estimate (95% CI) for acute ILD: Cmax Quartile 3 vs Quartile 1” value [6] was 0.5 (0.14–1.72) and the “OR estimate (95% CI) for acute ILD: Cmax Quartile 4 vs Quartile 1” value [6] was 3.03 (1–9.17). The “OR estimate (95% CI) … vs <0.5 years” value [7] was 0.59 (0.2–1.75), the “OR estimate (95% CI) for acute ILD: Interaction of pre-existing IP and normal lung coverage” value [7] was 0.18 (0.01–4.98) and the “OR estimate (95% CI) for acute ILD: Interaction of smoking history and normal lung coverage” value [7] was 0.17 (0.02–1.89). For the same molecule, the “OR estimate (95% CI) … (yes vs no)” value [7] was 5.21 (0.39–70.35), the “OR estimate (95% CI) for acute ILD: WHO performance status 1 vs 0” value [7] was 0.57 (0.19–1.68) and the “OR estimate (95% CI) for acute ILD: WHO performance status 2–3 vs 0” value [7] was 1.34 (0.33–5.39). The “OR estimate (95% CI) for acute ILD: Age” value [7] was 1.69 (0.4–7.17), the “OR estimate (95% CI) … (10%–50% vs 60%–100%)” value (Analysis 4 (PK parameter Cmax,ss), p<0.05) was 9.4 (1.11–79.48)* and the “OR estimate (95% CI) for acute ILD: Cmax,ss Quartile 2 vs Quartile 1” value [8] was 0.69 (0.16–3.02). For the same molecule, the “OR estimate (95% CI) for acute ILD: Cmax,ss Quartile 3 vs Quartile 1” value [8] was 1.72 (0.47–6.27).
